How the values were obtained:
Assay type in all cases: in vivo
[1] = system: glufosinate tolerant field corn variety Pioneer 34A55; experiment: Phytotoxicity rating on glufosinate tolerant field corn (chlorosis, necrosis, abnormal growth); conditions: 1.46 Lbs ai/acre, 10 ml into the whorl
Method: Seeds were germinated in 4 inch pots and maintained for one month with regular watering and temperatures to simulate field conditions. […] Each treatment was replicated four times in a randomized complete block design. […] The volume of 10 ml was selected to fill the whorl of the largest plant in the study, all others were filled to running over.
An application volume of 15 gal/acre was used to determine the mix concentration used.
The treatments were evaluated for phytotoxicity in the form of chlorosis, necrosis and abnormal growth by visually inspecting each plant. When damage was present, each plant was given a damage rating from 0 to 10 with 0 indicating no effect and 10 indicating death.

[2] = system: Polpy = Smartweed, Pennsylvania - Polygonium pensylvanicum; experiment: % control of Pennsylvania smartweed 27 days after treatment; conditions: rate 0.32 lbs. ai/A
[3] = system: Setiu + Foxtail, Yellow - Sataria Leutescens; experiment: % control of yellow foxtail 27 days after treatment; conditions: rate 0.32 lbs. ai/A
[4] = system: Plant Species (Setia, Porol, Amabl, Polpy, Sotlu); nuisance weeds; experiment: % control over the five plant species (total, average) 27 days after treatment; conditions: rate 0.32 lbs. ai/A
[5] = system: Amabl = Pigweed, Prostrate - Amaranthus blitoides; experiment: % control of prostrate pigweed 27 days after treatment; conditions: rate 0.32 lbs. ai/A
[6] = system: Porol = Purslane, Common - Portulaca oleraca; experiment: % control of common purslane 27 days after treatment; conditions: rate 0.32 lbs. ai/A
[7] = system: Setia = Foxtail., Giant - setaria; experiment: % control of giant foxtail 27 days after treatment; conditions: rate 0.32 lbs. ai/A

In the case of “2-amino-4-(hydroxymethyl phosphinyl) butanoic acid [Glufosinate]”, the “Ratings 20 days after treatment (damage rating 0 to 10, 0 no effect, 10 death)” value [1] is reported as 0.8 b, the “% Control 27 Days After Treatment, Polpy” value [2] is reported as 81.67% and the “% Control 27 Days After Treatment, Sotlu” value [3] is reported as 60.00%. For the same substance, the “% Control 27 Days After Treatment, Average” value ([4]; average over five plant species) was 71.00%, the “% Control 27 Days After Treatment, Total” value ([4]; sum over five plant species) was 355.00% and the “% Control 27 Days After Treatment, Amabl” value [5] was 73.33%. The “% Control 27 Days After Treatment, Porol” value [6] was 78.33% and the “% Control 27 Days After Treatment, Setia” value [7] was 61.67%.

Source: patent US6642177B1, “Sarcoslnates as glufosinate adjuvants” (Hampshire Chemical Corp., priority 1998, dated 2003)
